Test results reported in ChEMBL document CHEMBL5046251, “Discovery of a Series of Pyrimidine Carboxamides as Inhibitors of Vanin-1” (J Med Chem, 2022).
Calls of active or inactive are those of the source. The calls are words filed in the database; no cut-off is given here.

Experiments:
[1] = Volume of distribution in rat at 2 mg/kg, iv measured upto 24 hrs by LC-MS/MS analysis; assay type: ADME, organism-based; conditions: in vivo
[2] = Intrinsic clearance in human liver microsomes; assay type: ADME, Microsome
[3] = AUC in rat at 10 mg/kg, po measured upto 24 hrs by LC-MS/MS analysis; assay type: ADME, organism-based; parameters: route oral, dose 10 mg/kg, time <=24; conditions: in vivo
[4] = Renal clearance in beagle dog assessed as glomerular filtration rate; assay type: ADME, Canis lupus familiaris; conditions: in vivo
[5] = Intrinsic clearance in rat hepatocytes assessed per million cells; assay type: ADME, cell-based, Hepatocyte
[6] = Unbound drug concentration in serum of DSS-induced BALB/c mouse colitis model at 50 mg/kg administered for 10 days; assay type: ADME, organism-based; conditions: in vivo, 240 h, time 10 day
[7] = Clearance in beagle dog by LC-MS/MS analysis; assay type: ADME, Canis lupus familiaris; conditions: in vivo
[8] = Plasma protein binding in mouse assessed as unbound fraction; assay type: ADME, cell-free
Mus musculus [9] = assay: Anti-colitis activity against DSS-induced BALB/c mouse model assessed as reduction in disease activity index at 0.5 to 50 mg/kg, po, qd administered for 10 days; assay type: functional, organism-based; conditions: dose 0.5-50 mg/kg, time 10.0 day
[10] = Plasma protein binding in beagle dog assessed as unbound fraction; assay type: ADME, cell-free, Canis lupus familiaris
[11] = Oral bioavailability in beagle dog; assay type: ADME, organism-based, Canis lupus familiaris; conditions: in vivo
[12] = Renal clearance in rat at 2 mg/kg, iv assessed glomerular filtration rate; assay type: ADME, organism-based; conditions: in vivo
[13] = Volume of distribution at steady state in beagle dog by LC-MS/MS analysis; assay type: ADME, Canis lupus familiaris; conditions: in vivo, read-out: Vdss
[14] = Half life in rat at 2 mg/kg, iv measured upto 24 hrs by LC-MS/MS analysis; conditions: in vivo
[15] = Unbound drug concentration in serum of DSS-induced BALB/c mouse colitis model at 5 mg/kg administered for 10 days; assay type: ADME, organism-based; conditions: in vivo, 240 h, time 10 day
[16] = Half life in beagle dog by LC-MS/MS analysis; conditions: in vivo
[17] = Intrinsic clearance in human hepatocytes assessed per million cells by relay assay method; assay type: ADME, cell-based, Hepatocyte
[18] = Clearance in rat at 2 mg/kg, iv measured upto 24 hrs by LC-MS/MS analysis; assay type: ADME, organism-based; conditions: in vivo
Mus musculus [19] = assay: Anti-colitis activity against DSS-induced BALB/c mouse model assessed as increase in body weight at 0.5 to 50 mg/kg, po, qd administered for 10 days; assay type: functional, organism-based; conditions: dose 0.5-50 mg/kg, time 10.0 day
[20] = AUC in rat at 2 mg/kg, iv measured upto 24 hrs by LC-MS/MS analysis; assay type: ADME, organism-based; parameters: route intravenous, dose 2 mg/kg, time <=24; conditions: in vivo
CYP2A4 = assay: Inhibition of CYP2A4 (unknown origin) at 3 uM relative to control; assay type: ADME; conditions: human
[21] = Oral bioavailability in rat at 10 mg/kg measured upto 24 hrs by LC-MS/MS analysis; assay type: ADME, organism-based; conditions: in vivo
[22] = Unbound drug concentration in serum of DSS-induced BALB/c mouse colitis model at 1.5 mg/kg administered for 10 days; assay type: ADME, organism-based; conditions: in vivo, 240 h, time 10 day
[23] = Unbound drug concentration in serum of DSS-induced BALB/c mouse colitis model at 0.5 mg/kg administered for 10 days; assay type: ADME, organism-based; conditions: in vivo, 240 h, time 10 day
[24] = Plasma protein binding in human assessed as unbound fraction; assay type: ADME, cell-free
Mus musculus [25] = assay: In vivo inhibition of vanin-1 in DSS-induced BALB/c mouse colitis model serum administered for 10 days; assay type: functional, organism-based; conditions: dose 0.5-50 mg/kg, time 10.0 day
[26] = Plasma protein binding in Wistar han rat assessed as unbound fraction; assay type: ADME, cell-free
[27] = Inhibition of beagle dog vanin-1
[28] = Intrinsic clearance in human hepatocytes assessed per million cells; assay type: ADME, cell-based, Hepatocyte

Vd [1]: 0.84 L/kg | Intrinsic clearance [2]: < 8 µL/min/mg | AUC at 24 h [3]: 8540 ng·h/mL | CL [4]: 22% | CLint [5]: < 3 µL/min/1e6 cells | Drug uptake(free) [6]: 773 nM | clearance [7]: 3.5 mL/min/kg | fraction unbound [8]: 0.941 | fraction unbound [10]: 0.826 | bioavailability [11]: 100% | CL [12]: 55% | Vd [13]: 0.94 L/kg | half-life at 24 h [14]: 1 h | Drug uptake(free) [15]: 202 nM | half-life [16]: 3.4 h | CLint [17]: < 0.16 µL/min/1e6 cells | clearance [18]: 19 mL/min/kg | AUC at 24 h [20]: 1790 ng·h/mL | inhibition at 3 µM (CYP2A4): < 5% | bioavailability [21]: 96% | Drug uptake(free) [22]: 61 nM | Drug uptake(free) [23]: 1 nM | fraction unbound [24]: 0.812 | fraction unbound [26]: 0.812 | IC50 [27]: 0.9 nM | CLint [28]: < 3 µL/min/1e6 cells
SMILES: O=C(c1cnc(NCc2cnccn2)nc1)N1CCC2(CCOCC2)C1 [PFI-653]
Activity (Mus musculus [9]): Active | Activity (Mus musculus [19]): Active | Activity (Mus musculus [25]): Dose-Dependent Effect
